Test results taken from patent US20170157301A1, “LEOLIGIN DERIVATIVES AS SMOOTH MUSCLE CELL PROLIFERATION INHIBITORS” (TECHNISCHE UNIVERSITAET WIEN, priority 2014, published 2017).

Experiments:
[1] = test system: HUVECtert immortalized human umbilical vein endothelial cells; assay: endothelial cell proliferation (resazurin); type: cell-based
Description: For determination of endothelial cell proliferation, 0.5×10^4 HUVECtert immortalized human umbilical vein endothelial cells (H. B. Schiller et al., Mol. Biol. Cell. 20(3), 745-756 (2009)) were seeded in 96-well plates for 24 h in HUVEC Complete Medium (EBM™ growth medium supplemented with 10% fetal bovine serum, EBM™ SingleQuots (Lonza, Basel, Switzerland), 100 U/mL benzylpenicillin, 100 μg/mL streptomycin, and 1% amphotericin). Afterwards, the medium was exchanged with fresh HUVEC Complete Medium and cells were treated with the indicated compounds for 48 h. After the end of the incubation period, the medium was removed, the cells were washed once with 200 μL/well PBS, and treated with 150 μL HUVEC Complete Medium containing 10 μg/mL resazurin. 2 h later, the fluorescence was measured at a wavelength of 580 nm, with excitation wavelength 535 nm in a 96-well plate reader (Tecan GENios Pro; Tecan Group Ltd., Mannedorf, Switzerland).

[2] = test system: SMCs in relation to ECs; assay: activity ratio: efficiency towards SMCs / efficiency towards ECs; type: cell-based; details: inverse of 0.39
[3] = test system: SMCs; details: cited from earlier work
[4] = test system: rat aortic SMCs; assay: vascular SMC proliferation (PDGF-induced, resazurin conversion); type: cell-based
Description: For determination of vascular SMC proliferation, 0.5×10^4 viable rat aortic SMCs per well were seeded in SMC growth medium (DMEM/F12 medium with 20% serum, 30 μg/mL Gentamicin and 15 ng/mL Amphotericin) in 96-well plates. 24 h later, the medium was removed, the cells were washed once with SMC starvation medium (DMEM/F12 medium with 0.1% serum, 0.2% BSA, 30 μg/mL Gentamicin and 15 ng/mL Amphotericin) and incubated in starvation medium for further 24 h.
The quiescent cells were then pretreated for 30 min with the test compounds and induced to proliferate with 20 ng/mL platelet-derived growth factor (PDGF). Unstimulated cells were utilized for normalization and estimation of the basal level of proliferation. The final concentration of the solvent vehicle, dimethyl sulfoxide (DMSO), was the same (0.1%) in all wells. 48 h later, the SMC proliferation was quantified by resazurin dye conversion for 2 h as previously described (H. Joa et al., J. Nat. Prod. 74(6), 1513-6 (2011)).

[5] = test system: SMCs; assay: IC50 of Leoligin for SMCs (A. Knolz, Master's Thesis, University of Innsbruck, 2008); type: cell-based
[6] = test system: ECs; details: cited from earlier work

C/C=C(/C)C(=O)OC[C@H]1[C@@H](Cc2ccc(OC)c(OC)c2)CO[C@@H]1c1ccc(OC)c(OC)c1 [Leoligin, (Z)-((2S,3R,4R)-4-(3,4-dimethoxybenzyl)-2-(3,4-dimethoxyphenyl)tetrahydro-furan-3-yl)methyl 2-methylbut-2-enoate]
Efficiency towards ECs ([1]; 1 minus fraction of surviving ECs): 1-0.51 = 0.49
Percentage of surviving ECs ([1]; HUVECtert, 48 h, resazurin): 0.51 (51%)
inverse value of activity ratio (factor of selective inhibition of ECs relative to SMCs) [2]: approximately 2.5
IC50 [3]: 54.5 µM
Efficiency towards SMCs ([4]; 1 minus fraction of surviving SMCs): 1-0.81 = 0.19
Percentage of surviving SMCs ([4]; rat aortic SMCs, 20 ng/mL PDGF, 48 h, resazurin): 0.81 (81%)
inverse value of IC50 ratio (measure for selective inhibition of ECs compared to SMCs) ([5]; from cited IC50 values): 3.0
IC50 ratio (measure for selective inhibition of SMCs compared to ECs) ([5]; from cited IC50 values for ECs and SMCs): 0.33
IC50 [6]: 17.9 µM
